Source: ChEMBL document CHEMBL5329205, “Development of novel quinoline-NO donor hybrids inducing human breast cancer cells apoptosis via inhibition of topoisomerase I” (Bioorg Med Chem, 2023)
pIC50: −log10 of the molar value.

Experiments:
[1] = test system: A549; assay: Antiproliferative activity against human A549 cells assessed as inhibition of cell growth incubated for 48 hrs by MTT assay; format: functional, cell-based; conditions: A549, 48 h
[2] = test system: HCT-116; assay: Antiproliferative activity against human HCT-116 cells assessed as inhibition of cell growth incubated for 48 hrs by MTT assay; format: functional, cell-based; conditions: HCT-116, 48 h
[3] = test system: MCF7; assay: Antiproliferative activity against human MCF7 cells assessed as inhibition of cell growth incubated for 48 hrs by MTT assay; format: functional, cell-based; conditions: MCF7, 48 h
[4] = test system: NCI/ADR-RES; assay: Antiproliferative activity against human MCF7ADR cells assessed as inhibition of cell growth measured after 48 hrs by MTT assay; format: functional, cell-based
[5] = Cytotoxicity against human MCF-10A cells assessed as cell growth inhibition measured after 48 hrs by MTT assay; format: toxicity, cell-based
[6] = test system: MCF7; assay: Antitumor activity against human MCF7 cells xenografted in BALB/c nude mouse assessed as reduction in tumor weight at 10 mg/kg, ip administered once every two days for 3 weeks relative to control; format: functional; design: scale not given: the % may be the effect or the level left
[7] = Toxicity in BALB/c mouse xenografted with human MCF7 cells assessed as heart damage at 10 mg/kg, ip administered once every two days for 3 weeks by H and E staining based microscopic analysis; format: organism-based; conditions: in vivo, 504 h
[8] = Toxicity in BALB/c mouse xenografted with human MCF7 cells assessed as liver damage at 10 mg/kg, ip administered once every two days for 3 weeks by H and E staining based microscopic analysis; format: organism-based; conditions: in vivo, 504 h
[9] = Toxicity in BALB/c mouse xenografted with human MCF7 cells assessed as spleen damage at 10 mg/kg, ip administered once every two days for 3 weeks by H and E staining based microscopic analysis; format: organism-based; conditions: in vivo, 504 h
[10] = Toxicity in BALB/c mouse xenografted with human MCF7 cells assessed as lung damage at 10 mg/kg, ip administered once every two days for 3 weeks by H and E staining based microscopic analysis; format: organism-based; conditions: in vivo, 504 h
[11] = Toxicity in BALB/c mouse xenografted with human MCF7 cells assessed as kidney damage at 10 mg/kg, ip administered once every two days for 3 weeks by H and E staining based microscopic analysis; format: organism-based; conditions: in vivo, 504 h

Structure (SMILES) | pIC50 [1] | pIC50 [2] | pIC50 [3] | pIC50 [4] | IC50 at 48 h [5] | Activity [6] | Activity [7] | Activity [8] | Activity [9] | Activity [10] | Activity [11]
O=C(OCCOc1no[n+]([O-])c1S(=O)(=O)c1ccccc1)c1ccnc2ccccc12 | 5.46 | < 5.30 | 5.34 | 5.48 | 23.2 µM | – | – | – | – | – | –
COc1cccc2c1C(=O)c1c(O)c3c(c(O)c1C2=O)C[C@@](O)(C(=O)CO)C[C@@H]3O[C@H]1C[C@H](N)[C@H](O)[C@H](C)O1 [DOXORUBICIN] | 6.24 | 6.14 | – | – | – | – | – | – | – | – | –
O=C(O)c1ccnc2ccccc12 | < 4.30 | < 4.30 | < 4.30 | < 4.30 | > 50 µM | – | – | – | – | – | –
O=C(OCCCOc1no[n+]([O-])c1S(=O)(=O)c1ccccc1)c1ccnc2ccccc12 | < 5.30 | 5.36 | 5.37 | 5.29 | 25.4 µM | – | – | – | – | – | –
COc1cc(-c2cc(C(=O)O)c3ccccc3n2)cc(OC)c1OC | – | – | < 4.30 | – | – | – | – | – | – | – | –
O=C(OCCCCCOc1no[n+]([O-])c1S(=O)(=O)c1ccccc1)c1ccnc2ccccc12 | < 5.30 | 5.31 | < 5.30 | 5.33 | 4.21 µM | – | – | – | – | – | –
CC(=O)O[C@H]1C(=O)[C@@]2(C)[C@H]([C@H](OC(=O)c3ccccc3)[C@]3(O)C[C@H](OC(=O)[C@H](O)[C@@H](NC(=O)c4ccccc4)c4ccccc4)C(C)=C1C3(C)C)[C@]1(OC(C)=O)CO[C@@H]1C[C@@H]2O [PACLITAXEL] | – | – | – | – | – | 61.18% | Non-Toxic | Non-Toxic | Non-Toxic | Non-Toxic | Non-Toxic
O=S(=O)(c1ccccc1)c1c(OCCCCCO)no[n+]1[O-] | – | – | 4.84 | – | – | – | – | – | – | – | –

Continued by rising pIC50 [3], values first:

pIC50 [1] | pIC50 [2] | pIC50 [3] | Structure (SMILES) | pIC50 [4] | IC50 at 48 h [5] | Activity [6] | Activity [7] | Activity [8] | Activity [9] | Activity [10] | Activity [11]
< 5.30 | 5.30 | 5.37 | O=C(OCCCCCCOc1no[n+]([O-])c1S(=O)(=O)c1ccccc1)c1ccnc2ccccc12 | 5.26 | 34.1 µM | – | – | – | – | – | –
< 5.30 | 5.40 | 5.37 | O=C(OCCCCOc1no[n+]([O-])c1S(=O)(=O)c1ccccc1)c1ccnc2ccccc12 | 5.37 | 32.2 µM | – | – | – | – | – | –
5.57 | 5.36 | 5.50 | COc1cc(-c2cc(C(=O)OCCCCCCOc3no[n+]([O-])c3S(=O)(=O)c3ccccc3)c3ccccc3n2)cc(OC)c1OC | 5.48 | 28.2 µM | – | – | – | – | – | –
5.57 | 5.42 | 5.65 | COc1cc(-c2cc(C(=O)OCCOc3no[n+]([O-])c3S(=O)(=O)c3ccccc3)c3ccccc3n2)cc(OC)c1OC | 5.47 | 16.3 µM | – | – | – | – | – | –
5.64 | 5.60 | 5.78 | COc1cc(-c2cc(C(=O)OCCCOc3no[n+]([O-])c3S(=O)(=O)c3ccccc3)c3ccccc3n2)cc(OC)c1OC | 5.90 | 30.7 µM | – | – | – | – | – | –
5.62 | 5.69 | 5.83 | COc1cc(-c2cc(C(=O)OCCCCOc3no[n+]([O-])c3S(=O)(=O)c3ccccc3)c3ccccc3n2)cc(OC)c1OC | 5.96 | 36.5 µM | – | – | – | – | – | –
